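Five concentrations, 48 hours, 96-well plates. The concentration for 50% growth inhibition is given as GI50.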 Calls of active or inactive are those of the source. No stated cut-off is given here; in the data, active = GI50 up to about 1.1 µM and inactive = higher.
What was measured:
Test in all cases: inhibition of tumour cell growth, NCI panel, 48 h
HOP-62 = tested on: HOP-62
A549 = tested on: A549
SR = tested on: SR
A498 = tested on: A498
UACC-62 = tested on: UACC-62
RPMI-8226 = tested on: RPMI-8226
NCI-H522 = tested on: NCI-H522
786-0 = tested on: 786-0
HCC 2998 = tested on: HCC 2998
OVCAR-3 = tested on: OVCAR-3
K562 = tested on: K562
CCRF-CEM = tested on: CCRF-CEM
RXF 393 = tested on: RXF 393
SF-539 = tested on: SF-539
SK-OV-3 = tested on: SK-OV-3
NCI-H460 = tested on: NCI-H460

Measured: GI50

N#CC1(Cc2ccccc2Cl)c2ccccc2C=CN1C(=O)c1ccccc1 (stereo unspecified)
inactive: HOP-62 > 100 µM | A549 90.8 µM | SR 45.5 µM | A498 > 100 µM | UACC-62 > 100 µM | RPMI-8226 66.5 µM | NCI-H522 86.1 µM | 786-0 > 100 µM | HCC 2998 > 100 µM | OVCAR-3 > 100 µM | K562 25.1 µM | CCRF-CEM 57.4 µM | RXF 393 23.2 µM | SF-539 > 100 µM | SK-OV-3 > 100 µM

N#Cc1ccccc1Sc1ccccc1N
inactive: HOP-62 > 100 µM | A549 67.3 µM | SR 72.6 µM | A498 > 100 µM | UACC-62 50.1 µM | 786-0 > 100 µM | K562 70.6 µM | CCRF-CEM 73.1 µM | NCI-H460 > 100 µM | RXF 393 80.2 µM | SF-539 > 100 µM | SK-OV-3 > 100 µM

FC(F)(F)C1(Cl)C(c2ccccc2)=C1c1ccccc1
inactive: HOP-62 18.3 µM | A549 15.1 µM | SR 22.3 µM | UACC-62 14 µM | RPMI-8226 29.7 µM | 786-0 17 µM | HCC 2998 17.7 µM | OVCAR-3 17.2 µM | K562 12.2 µM | CCRF-CEM 2.49 µM | NCI-H460 16 µM | RXF 393 13.3 µM | SF-539 15.6 µM | SK-OV-3 18.2 µM

O=C1SC(c2ccccc2)(c2ccccc2)c2ccccc21
inactive: HOP-62 > 100 µM | A549 50.9 µM | UACC-62 68.1 µM | RPMI-8226 45.5 µM | NCI-H522 68.4 µM | 786-0 > 100 µM | HCC 2998 > 100 µM | OVCAR-3 > 100 µM | K562 74.5 µM | CCRF-CEM 94.6 µM | NCI-H460 69.7 µM | RXF 393 44.1 µM | SF-539 > 100 µM | SK-OV-3 > 100 µM

[N-]=[N+]=NC1(c2ccccc2)C(=O)C(Cl)=C(c2ccccc2)N(c2ccccc2)C1=O (stereo unspecified)
inactive: HOP-62 > 100 µM | A549 > 100 µM | SR 65.5 µM | A498 > 100 µM | UACC-62 > 100 µM | NCI-H522 41.2 µM | 786-0 > 100 µM | HCC 2998 > 100 µM | OVCAR-3 65.3 µM | K562 46.8 µM | CCRF-CEM 59.7 µM | NCI-H460 > 100 µM | SF-539 > 100 µM | SK-OV-3 31.3 µM

O=C(O)C(CS)NCc1c2ccccc2[n+]([O-])c2ccccc12 (stereo unspecified)
inactive: HOP-62 66.1 µM | A549 > 100 µM | A498 68.7 µM | UACC-62 47.4 µM | RPMI-8226 26.3 µM | NCI-H522 94 µM | 786-0 37.2 µM | HCC 2998 36.1 µM | OVCAR-3 81.7 µM | K562 20.5 µM | CCRF-CEM 21.5 µM | NCI-H460 41.4 µM | SK-OV-3 > 100 µM

CC(C)(C)NNC(=O)CCn1[nH]c(=O)c(Cl)c(Cl)c1=O
inactive: HOP-62 > 100 µM | A549 > 100 µM | A498 10.7 µM | UACC-62 > 100 µM | RPMI-8226 > 100 µM | NCI-H522 > 100 µM | 786-0 > 100 µM | HCC 2998 > 100 µM | OVCAR-3 > 100 µM | K562 > 100 µM | CCRF-CEM > 100 µM | NCI-H460 > 100 µM | RXF 393 > 100 µM | SF-539 > 100 µM | SK-OV-3 > 100 µM

CC(C)OP(=O)(OC(C)C)/C(=N/Nc1ccc([N+](=O)[O-])cc1)NNC(=O)c1ccccc1
inactive: HOP-62 > 100 µM | A549 55.6 µM | SR 22.3 µM | UACC-62 20.5 µM | RPMI-8226 29.7 µM | NCI-H522 42.4 µM | 786-0 > 100 µM | HCC 2998 25.8 µM | OVCAR-3 34.3 µM | K562 29.8 µM | CCRF-CEM 17.7 µM | NCI-H460 28.8 µM | SF-539 > 100 µM

Cc1nc(=O)[nH]c2[nH][nH]c(=O)c12
inactive: HOP-62 > 100 µM | A549 > 100 µM | SR > 100 µM | UACC-62 > 100 µM | RPMI-8226 > 100 µM | NCI-H522 > 100 µM | 786-0 > 100 µM | OVCAR-3 > 100 µM | K562 > 100 µM | CCRF-CEM > 100 µM | NCI-H460 > 100 µM | RXF 393 > 100 µM | SF-539 > 100 µM | SK-OV-3 > 100 µM

O=C1NC2(CCCC2)C(=O)C12CCCC2
inactive: HOP-62 > 100 µM | A549 > 100 µM | SR > 100 µM | A498 > 100 µM | UACC-62 > 100 µM | RPMI-8226 > 100 µM | NCI-H522 > 100 µM | 786-0 > 100 µM | OVCAR-3 > 100 µM | K562 > 100 µM | CCRF-CEM > 100 µM | NCI-H460 > 100 µM | RXF 393 > 100 µM | SF-539 > 100 µM | SK-OV-3 > 100 µM

CC(=O)N(C)OC(=O)CC(=O)c1ccccc1
inactive: HOP-62 > 100 µM | A549 > 100 µM | SR > 100 µM | UACC-62 > 100 µM | RPMI-8226 > 100 µM | NCI-H522 > 100 µM | 786-0 > 100 µM | HCC 2998 > 100 µM | OVCAR-3 > 100 µM | K562 > 100 µM | CCRF-CEM > 100 µM | NCI-H460 > 100 µM | RXF 393 > 100 µM | SF-539 > 100 µM | SK-OV-3 > 100 µM

C=CC[P@]1(=O)O[C@H](c2ccccc2)[C@H](C)N1C
inactive: A549 > 100 µM | SR > 100 µM | A498 > 100 µM | UACC-62 > 100 µM | RPMI-8226 > 100 µM | 786-0 > 100 µM | HCC 2998 > 100 µM | OVCAR-3 > 100 µM | K562 > 100 µM | CCRF-CEM > 100 µM | NCI-H460 > 100 µM | RXF 393 > 100 µM | SF-539 > 100 µM | SK-OV-3 > 100 µM

COC(=O)N/N=C(\C)C(CN(C)C)C(c1ccccc1)c1c(O)c2ccccc2oc1=O (stereo unspecified)
inactive: HOP-62 > 100 µM | A549 > 100 µM | SR > 100 µM | A498 > 100 µM | UACC-62 > 100 µM | RPMI-8226 > 100 µM | NCI-H522 14.2 µM | 786-0 > 100 µM | HCC 2998 > 100 µM | K562 > 100 µM | CCRF-CEM > 100 µM | RXF 393 > 100 µM | SF-539 > 100 µM | SK-OV-3 > 100 µM

O=C(CCc1n[nH]c(=S)o1)Nc1ccc(Cl)cc1Cl
inactive: HOP-62 > 100 µM | A549 > 100 µM | A498 > 100 µM | UACC-62 > 100 µM | RPMI-8226 16.9 µM | NCI-H522 61.8 µM | 786-0 > 100 µM | HCC 2998 > 100 µM | OVCAR-3 > 100 µM | K562 38.7 µM | CCRF-CEM 43.6 µM | NCI-H460 > 100 µM | SF-539 > 100 µM | SK-OV-3 > 100 µM

— ChEMBL document CHEMBL1201862, “PubChem BioAssay data set” (2004)
